Peptide text beside a SMILES is read from it.
Molecular target: T1, CRF2R (Homo sapiens, UniProt Q13324)
T1 sequence (Q13324 1-411): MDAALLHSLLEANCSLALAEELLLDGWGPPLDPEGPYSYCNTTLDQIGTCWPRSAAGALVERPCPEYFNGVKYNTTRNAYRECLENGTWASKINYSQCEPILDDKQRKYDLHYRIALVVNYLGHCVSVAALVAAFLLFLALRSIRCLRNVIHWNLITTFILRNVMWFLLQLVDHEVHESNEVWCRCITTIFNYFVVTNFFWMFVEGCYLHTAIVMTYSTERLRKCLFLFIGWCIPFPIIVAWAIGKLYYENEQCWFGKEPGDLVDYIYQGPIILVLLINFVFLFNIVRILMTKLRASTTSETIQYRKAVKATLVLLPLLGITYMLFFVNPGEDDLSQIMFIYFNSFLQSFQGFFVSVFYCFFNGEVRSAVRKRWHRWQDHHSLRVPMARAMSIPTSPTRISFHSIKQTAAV
Test: CRF2R agonist activity (EC50, Emax), called comparative CRF binding
Type: cell-based
Conditions: read-out: CRF2R EC50
Source text: The pharmacological activity and selectivity of the peptides of present invention can be determined using published test procedures. See, e.g, U.S. patent application Ser. No. 09/799,978. Because CRF2R and CRF1R are homologous proteins, it is expected that a certain proportion of agonists for CRF2R will also function as agonists of CRF1R. As discussed above, activation of CRF1R induces activation of the HPA axis since increased corticosteroid production leads to skeletal muscle atrophy. In most cases in which an increase in muscle mass or function is desired, it is not desirable to activate the HPA axis.
Because it is desirable to discriminate binding between CRF2R, as compared with CRF1R, the assays described above may be conducted using a cell, or membrane from a cell, which expresses only CRF2R or the assays can be conducted with a recombinant source of CRF2R. Cells expressing both forms of CRFR may be modified using homologous recombination to inactivate or otherwise disable the CRF1R gene. Alternatively, if the source of CRFR contains more than one CRFR type, the background signal produced by the receptor which is not of interest must be subtracted from the signal obtained in the assay. […] Known antagonists of CRFRs include, but, are not limited to, antalarmin (CRF1R selective), antisauvagine-30 (CRF2R selective) and astressin (nonselective for CRF1R/CRF2R).
Cell-based assays include the steps of contacting cells which express CRF1R or CRF2R with a peptide of the present invention or control and measuring activation of the CRFR by measuring the expression or activity of components of the CRFR signal transduction pathways.
As described in the background section above, CRFRs appear to couple through several different pathways including Gαs, Gαq or Gαi, depending upon the cell type. It is thought that agonist activation of CRFR allows the receptor to signal via any of these pathways, provided that the necessary pathway components are present in the particular cell type. Thus, to assay a particular peptide of the present invention for CRFR activation, an assay can use any of the signal transduction pathways as the readout even if the relevant cell type for treatment, in vivo, couples CRFR to skeletal muscle atrophy via a different pathway. […] Assays for measuring activation of these signaling pathways are known in the art.
For example, after contact with a peptide of the present invention, lysates of the cells can be prepared and assayed for induction of cAMP. cAMP is induced in response to Gαs activation. Because Gαs is activated by receptors other than CRFR and because a test peptide may be exerting its effect through CRFRs or by another mechanism, two control comparisons are relevant for determining whether the peptide increases levels of cAMP via activation of a CRFR. One control compares the cAMP level of cells contacted with the peptide and the cAMP level of cells contacted with a control compound (i.e., the vehicle in which the peptide is dissolved).
In one example, cAMP induction is measured with the use of DNA constructs containing the cAMP responsive element linked to any of a variety of reporter genes can be introduced into cells expressing CRFRs. Such reporter genes include, but are not limited to, chloramphenicol acetyltransferase (CAT), luciferase, glucuronide synthetase, growth hormone, fluorescent proteins (e.g., Green Fluorescent Protein), or alkaline phosphatase. Following exposure of the cells to the peptide, the level of reporter gene expression can be quantitated to determine the peptide's ability to increase cAMP levels and thus determine the peptide's ability to activate the CRFR.
In addition to using cells expressing full length CRFRs, cells can be engineered which express CRFRs containing the ligand binding domain of the receptor coupled to, or physically modified to contain, reporter elements or to interact with signaling proteins.

`CC[C@H](C)[C@H](NC(=O)[C@H](C)NC(=O)[C@H](CC(N)=O)NC(=O)[C@H](CCC(N)=O)NC(=O)[C@H](CCC(=O)O)NC(=O)[C@H](C)NC(=O)[C@H](CCCNC(=N)N)NC(=O)[C@H](CCC(=O)O)NC(=O)[C@H](CCCNC(=N)N)NC(=O)[C@H](CCC(N)=O)NC(=O)[C@H](CO)NC(=O)[C@H](CCC(N)=O)NC(=O)[C@@H](NC(=O)[C@H](CCCCN)NC(=O)[C@H](CCC(=O)O)NC(=O)[C@H](CC(C)C)NC(=O)[C@H](CCC(=O)O)NC(=O)[C@H](CC(C)C)NC(=O)[C@H](CC(C)C)NC(=O)[C@@H](NC(=O)[C@H](CCCNC(=N)N)NC(=O)[C@H](CC(C)C)NC(=O)[C@H](CC(C)C)NC(=O)[C@H](CC(C)C)NC(=O)[C@H](CC(C)C)NC(=O)[C@@H]1CCCN1C(=O)[C@H](CC(C)C)NC(=O)[C@H](CC(=O)O)NC(=O)[C@@H](NC(=O)[C@H](CO)NC(=O)[C@H](CC(C)C)NC(=O)[C@H](CO)NC(=O)[C@@H]1CCCN1)[C@@H](C)CC)[C@@H](C)O)[C@@H](C)O)C(=O)N[C@H](C(=O)N[C@@H](Cc1ccccc1)C(=O)N[C@@H](C)C(=O)N[C@@H](CO)C(=O)N[C@H](C(N)=O)C(C)C)[C@@H](C)CC` [compound 348] (H-PSLSIDLPLLLLRTLLELEKTQSQRERAEQNAIIFASV-NH2) and `CC[C@H](C)[C@H](NC(=O)[C@H](C)NC(=O)[C@H](CC(N)=O)NC(=O)[C@H](CCC(N)=O)NC(=O)[C@H](CCC(=O)O)NC(=O)[C@H](C)NC(=O)[C@H](CCCNC(=N)N)NC(=O)[C@H](CCC(=O)O)NC(=O)[C@H](CCCNC(=N)N)NC(=O)[C@H](CCC(N)=O)NC(=O)[C@H](CO)NC(=O)[C@H](CCC(N)=O)NC(=O)[C@@H](NC(=O)[C@H](CCCCN)NC(=O)[C@H](CCC(=O)O)NC(=O)[C@H](CC(C)C)NC(=O)[C@H](CCC(=O)O)NC(=O)[C@H](CC(C)C)NC(=O)[C@H](CC(C)C)NC(=O)[C@@H](NC(=O)[C@H](CCCNC(=N)N)NC(=O)[C@H](CC(C)C)NC(=O)[C@H](CC(C)C)NC(=O)[C@H](CC(C)C)NC(=O)[C@H](CC(C)C)NC(=O)[C@@H]1CCCN1C(=O)[C@H](CC(C)C)NC(=O)[C@H](CC(=O)O)NC(=O)[C@@H](NC(=O)[C@H](CO)NC(=O)[C@H](CC(C)C)NC(=O)[C@H](CO)NC(=O)[C@@H]1CCCN1C(=O)[C@H](CC(N)=O)NC(=O)[C@@H](N)CC(=O)O)[C@@H](C)CC)[C@@H](C)O)[C@@H](C)O)C(=O)N[C@H](C(=O)N[C@@H](Cc1ccccc1)C(=O)N[C@@H](C)C(=O)N[C@@H](CO)C(=O)N[C@H](C(N)=O)C(C)C)[C@@H](C)CC` [compound 346] (H-DNPSLSIDLPLLLLRTLLELEKTQSQRERAEQNAIIFASV-NH2) are within 1.5-fold of each other in EC50: 5.77 nM for the first, 8.48 nM for the second.

`CC[C@H](C)[C@H](N)C(=O)N[C@H](C(=O)N[C@@H](CC(C)C)C(=O)N[C@@H](CO)C(=O)N[C@@H](CC(C)C)C(=O)N[C@@H](CC(=O)O)C(=O)N[C@H](C(=O)N1CCC[C@H]1C(=O)N[C@H](C(=O)NCC(=O)N[C@@H](CC(C)C)C(=O)N[C@@H](CC(C)C)C(=O)N[C@@H](CCC(N)=O)C(=O)N[C@H](C(=O)N[C@@H](CC(C)C)C(=O)N[C@@H](CC(C)C)C(=O)N[C@@H](CCC(=O)O)C(=O)N[C@@H](CCC(N)=O)C(=O)N[C@@H](C)C(=O)N[C@@H](CCCNC(=N)N)C(=O)N[C@@H](C)C(=O)N[C@@H](CCCNC(=N)N)C(=O)N[C@@H](C)C(=O)N[C@@H](C)C(=O)N[C@@H](CCCNC(=N)N)C(=O)N[C@@H](CCC(=O)O)C(=O)N[C@@H](CCC(N)=O)C(=O)N[C@@H](C)C(=O)N[C@H](C(=O)N[C@H](C(=O)N[C@@H](CC(N)=O)C(=O)N[C@@H](C)C(=O)N[C@@H](CCCNC(=N)N)C(=O)N[C@H](C(=O)N[C@@H](CC(C)C)C(=O)N[C@@H](C)C(=O)N[C@@H](CCCNC(=N)N)C(=O)N[C@H](C(=O)N[C@@H](CCSC)C(N)=O)C(C)C)[C@@H](C)CC)[C@@H](C)O)[C@@H](C)O)[C@@H](C)CC)[C@@H](C)CC)C(C)C)C(C)C` [compound 356] (H-IVLSLDVPIGLLQILLEQARARAAREQATTNARILARVM-NH2; N-terminus assumed) was tested, and the EC50 was 83 nM.
